Experimental data as given in patent US20230382870A1, “N-AROMATIC AMIDE COMPOUNDS, PREPARATION METHODS AND USES THEREOF” (SHENZHEN EDK PHARMACEUTICAL TECHNOLOGY CO., LTD., priority 2021, published 2023).

Biological target: androgen receptor (Rattus norvegicus (Rat), UniProt P15207)
Test: Androgen receptor competition binding with radiolabeled dihydrotestosterone (hydroxyapatite separation, scintillation counting)
Conditions: androgen receptor from prostate of male SD rats; competition with radiolabeled DHT; 4 Celsius degrees, 15 hours
Description: Reagents and instruments: radiolabeled dihydrotestosterone […] and unlabelled dihydrotestosterone (DHT) purchased from Sigma-Aldrich (St. Louis, Mo.), scintillation solution purchased from Perkin Elmer Life Sciences (Boston, Mass.), hydroxyapatite (HAP) suspension purchased from Bio-Rad Laboratories (Hercules, Calif.), buffer (containing 10 mM Tris, 1.5 mM disodium EDTA, 0.25 M sucrose, 10 mM sodium molybdate and 1 mM PMSF, pH value adjusted to 7.4), and hydroxyapatite (HAP) solution (containing 50 mM Tris and 1 mM KH2PO4, pH value adjusted to 7.4).
In the present invention, the biological activity of the N-aromatic amide compounds with the formula (I) and/or (II) is measured accord to the following method. […] The androgen receptor (prepared from the prostate of male SD rats, 200-250 g of male Sprague-Dawley rats) and the radiolabeled dihydrotestosterone ([…], 84 Ci/mmol) are added to the buffer and well mixed for preparing reaction solution. The concentration gradients of the diluted compounds are respectively added into the reaction solution and well mixed, and the resulting mixtures are incubated at 4 Celsius degrees for 15 hours, so that the compounds and the dihydrotestosterone can fully react with the androgen receptor. Thereafter, the hydroxyapatite (HAP) suspension is added therein, well mixed, incubated for 10 minutes at 4 Celsius degrees, and centrifuged for removing the supernatant containing free dihydrotestosterone. The dihydrotestosterone bound to the androgen receptor is adsorbed in the hydroxyapatite and thus retained in the precipitated particles, thereby separating the bound and unbound radiolabelled ligands. A scintillation solution is added to the precipitate, well mixed, and detected for the radioactivity intensity using a WALLACE MicroBeta Trilux Scintillator (Perkin Elmer).The detected radioactivity intensity values for the concentration gradients are processed to obtain values of ICso and K. The specific biological activity (the competition results between androgen receptor ligand and radioligand) is shown in the following table: […]

androgen receptor, sequence (P15207 whole entry S389L): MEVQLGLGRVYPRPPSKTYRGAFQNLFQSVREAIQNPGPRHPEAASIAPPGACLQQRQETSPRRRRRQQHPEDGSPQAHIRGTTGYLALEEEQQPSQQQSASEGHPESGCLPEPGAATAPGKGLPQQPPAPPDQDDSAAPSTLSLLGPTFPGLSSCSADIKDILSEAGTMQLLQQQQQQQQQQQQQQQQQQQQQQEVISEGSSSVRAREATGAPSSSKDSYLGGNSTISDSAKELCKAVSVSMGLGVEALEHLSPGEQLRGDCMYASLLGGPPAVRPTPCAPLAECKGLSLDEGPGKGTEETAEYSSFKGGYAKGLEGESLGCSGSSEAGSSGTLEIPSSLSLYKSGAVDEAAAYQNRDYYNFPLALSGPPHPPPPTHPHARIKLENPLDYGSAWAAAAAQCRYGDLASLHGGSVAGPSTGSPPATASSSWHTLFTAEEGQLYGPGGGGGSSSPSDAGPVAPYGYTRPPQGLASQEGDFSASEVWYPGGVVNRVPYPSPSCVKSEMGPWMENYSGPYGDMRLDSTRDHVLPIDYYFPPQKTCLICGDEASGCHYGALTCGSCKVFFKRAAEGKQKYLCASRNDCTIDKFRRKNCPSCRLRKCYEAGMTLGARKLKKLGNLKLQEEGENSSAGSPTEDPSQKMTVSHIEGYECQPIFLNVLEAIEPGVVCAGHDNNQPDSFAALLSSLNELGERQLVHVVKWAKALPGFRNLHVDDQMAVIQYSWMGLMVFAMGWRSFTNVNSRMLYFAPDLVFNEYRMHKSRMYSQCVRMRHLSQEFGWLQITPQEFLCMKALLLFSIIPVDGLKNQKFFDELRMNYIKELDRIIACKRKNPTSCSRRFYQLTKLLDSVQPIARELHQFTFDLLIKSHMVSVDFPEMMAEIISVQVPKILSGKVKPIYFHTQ

Structure (SMILES) | IC50 [µM] | Ki [µM]
CC(C)(C(=O)Nc1ccc(C#N)c(C(F)(F)F)c1)n1ccc2cc(C(F)(F)F)ccc21 [Example 8, N-(4-cyano-3-trifluoromethyl)-phenyl-2-(5-trifluoromethyl-1H-indolyl-1-yl)-2-methylpropanamide] | 0.357 | 0.44
N#Cc1ccc(NC(=O)C2(n3cc(F)cn3)CCC2)cc1C(F)(F)F [Example 23, N-(4-cyano-3-trifluoromethyl)-phenyl-1-(4-fluoro-1H-pyrazolyl-1-yl)-cyclobutane-formamide] | 0.115 | –
CC(C)(C(=O)Nc1ccc(C#N)c(C(F)(F)F)c1)n1ccc2cc(C#N)ccc21 [Example 9, N-(4-cyano-3-trifluoromethyl)-phenyl-2-(5-cyano-1H-indolyl-1-yl)-2-methylpropanamide] | 0.232 | 0.445
CC(C)(C(=O)Nc1cnc(C#N)c(C(F)(F)F)c1)n1cc(F)cn1 [Example 22] | 0.073 | –
CC(C)(C(=O)Nc1ccc(C#N)c(C(F)(F)F)c1)n1ccc(F)n1 [Example 16, N-(4-cyano-3-trifluoromethyl)-phenyl-2-(3-fluoro-1H-pyrazolyl-1-yl)-2-methylpropanamide] | 0.147 | –
N#Cc1ncc(NC(=O)C2(n3cc(F)cn3)CCC2)cc1C(F)(F)F [Example 24, N-(6-cyano-5-trifluoromethyl-pyridyl-3-yl)-1-(4-fluoro-1H-pyrazolyl-1-yl) -cyclobutane-formamide] | 0.068 | –
CC(C)(C(=O)Nc1ccc(C#N)c(C(F)(F)F)c1)n1ccc2cc(F)ccc21 [Example 3, N-(4-cyano-3-trifluoromethyl)-phenyl-2-(5-fluoro-1H-indolyl-1-yl)-2-methylpropanamide] | 0.215 | 0.367
CC(C)(C(=O)Nc1ccc(C#N)c(C(F)(F)F)c1)n1cc(Cl)cn1 [Example 17, N-(4-cyano-3-trifluoromethyl)-phenyl-2-(4-chloro-1H-pyrazolyl-1-yl)-2-methylpropanamide] | 0.116 | –
CC(C)(C(=O)Nc1ccc(C#N)c(Cl)c1)n1ccc2cc(F)ccc21 [Example 12, N-(3-chloro-4-cyano) phenyl-2-(5-fluoro-1H-indolyl-1-yl)-2-methylpropanamide] | 0.205 | 0.351
CC(C)(C(=O)Nc1ccc(C#N)c(C(F)(F)F)c1)N1CCc2cc(F)ccc21 [Example 10, N-(4-cyano-3-trifluoromethyl)-phenyl-2-(5-fluoro-1H-2,3-dihydroindolyl-1-yl)-2-methylpropanamide] | 0.437 | 0.387
CC(C)(C(=O)Nc1ccc(C#N)c(C(F)(F)F)c1)n1cc(Br)c(F)n1 [Example 25, 2-(4-bromo-3-fluoro-1H-pyrazolyl-1-yl)-N-(4-cyano-3-trifluoromethyl)-phenyl-2-methylpropanamide] | 0.091 | –
CC(C)(C(=O)Nc1ccc(C#N)c(C(F)(F)F)c1)n1cc(Cl)c(F)n1 [Example 29, 2-(3-fluoro-4-chloro-1H-pyrazolyl-1-yl)-N-(4-cyano-3-trifluoromethyl)-phenyl-2-methylpropanamide] | 0.105 | –
CC(C)(C(=O)Nc1ccc(C#N)c(C(F)(F)F)c1)n1cc(C#N)c(Cl)n1 [Example 30, 2-(3-chloro-4-cyano-1H-pyrazolyl-1-yl)-N-(4-cyano-3-trifluoromethyl)-phenyl-2-methylpropanamide] | 0.088 | –
CC(C)(C(=O)Nc1ccc(C#N)c(C(F)(F)F)c1)n1cc(F)cn1 [Example 15, N-(4-cyano-3-trifluoromethyl)-phenyl-2-(4-fluoro-1H-pyrazolyl-1-yl)-2-methylpropanamide] | 0.125 | –
CC(C)(C(=O)Nc1ccc(C#N)c(C(F)(F)F)c1)n1ccc2cc(F)c(-c3ccccc3)cc21 [Example 2, N-(4-cyano-3-trifluoromethyl) phenyl-2-(5-fluoro-6-phenyl-1H-indolyl-1-yl)-2-methylpropanamide] | 0.337 | –
CC(C)(C(=O)Nc1ccc(C#N)c(C(F)(F)F)c1)n1cc(-c2ccc(F)cc2)cn1 [Example 14, N-(4-cyano-3-trifluoromethyl)-phenyl-2-[4-(4-fluorophenyl)-1H-pyrazolyl-1-yl]-2-methylpropanamide] | 0.76 | –
CC(C)(C(=O)Nc1ccc(C#N)c(C(F)(F)F)c1)N1CCc2cc(F)c(F)cc21 [Example 11, N-(4-cyano-3-trifluoromethyl)-phenyl-2-(5,6-difluoro-1H-2,3-dihydroindolyl-1-yl)-2-methylpropanamide] | 0.505 | 0.505
CC(C)(C(=O)Nc1ccc(C#N)c(C(F)(F)F)c1)n1ccc2ccc(F)cc21 [Example 5, N-(4-cyano-3-trifluoromethyl)-phenyl-2-(6-fluoro-1H-indolyl-1-yl)-2-methylpropanamide] | 0.227 | 0.314
CC(C)(C(=O)Nc1ccc(C#N)c(C(F)(F)F)c1)n1cc(F)c(F)n1 [Example 26, 2-(3,4-difluoro-1H-pyrazolyl-1-yl)-N-(4-cyano-3-trifluoromethyl)-phenyl-2-methylpropanamide] | 0.075 | –
CC(C)(C(=O)Nc1ccc(C#N)c(C(F)(F)F)c1)n1cc(-c2ccc(F)cc2)c(F)n1 [Example 13, N-(4-cyano-3-trifluoromethyl)-phenyl-2-[3-fluoro-4-(4-fluorophenyl)-1H-pyrazolyl-1-yl]-2-methylpropanamide] | 0.416 | –
CC(C)(C(=O)Nc1ccc(C#N)c(C(F)(F)F)c1)n1ccc2c(F)cccc21 [Example 4, N-(4-cyano-3-trifluoromethyl)-phenyl-2-(4-fluoro-1H-indolyl-1-yl)-2-methylpropanamide] | 0.246 | 0.491
CC(C)(C(=O)Nc1ccc(C#N)c(C(F)(F)F)c1)n1ccc2cc([N+](=O)[O-])ccc21 [Example 6, N-(4-cyano-3-trifluoromethyl)-phenyl-2-(5-nitro-1H-indolyl-1-yl)-2-methylpropanamide] | 0.261 | 0.421
CC(C)(C(=O)Nc1ccc(C#N)c(C(F)(F)F)c1)n1ccc2c(F)cc(-c3ccc(F)cc3)cc21 [Example 1, N-(4-cyano-3-trifluoromethyl)-phenyl-2-[4-fluoro-6-(4-fluorophenyl)-1H-indolyl-1-yl]-2-methylpropanamide] | 0.546 | –
